From BindingDB's records for doi:10.1111/cbdd.12529 (Birla Institute of Technology, 2015)

Legend:
DNA gyrase subunit B [1] = biological target: T1, DNA gyrase subunit B (Staphylococcus aureus, UniProt P0A0K8); assay: GyraseB Assay; settings: pH 7.5
Description: Initially, equimolar quantities of about 0.5µM each of E. coli gyraseA and S. aureus gyraseB were incubated for a period of 45 min with salmon sperm DNA (Sigma) in 50mM Tris (pH 7.5), 75mM ammonium acetate buffer for the reconstitution of the hybrid topoisomerases at 4 OC. Later the assay was performed in a 96-well microtiter plate as mentioned earlier (7). […] The reaction was allowed to proceed for 60 min and was quenched by addition of 20uL of malachite green reagent (POMG-25H, Bioassay systems, USA) subsequently absorbance was read at 650nm after 20 mi

DNA gyrase subunit B [2] = biological target: T1, DNA gyrase subunit B; assay: Supercoiling Assay; settings: pH 7.6; 25 °C
Description: Supercoiling assay was performed using the commercially available kit (DNA gyrase supercoiling assay kit: SAS4001) from Inspiralis Pvt.limited, Norwich, UK. The assay was performed in 1.5 mL eppendorf tubes at room temperature. […] KOH (pH 7.6), 10 mM magnesium acetate, 10 mM DTT, 2 mM ATP, 500 mM potassium glutamate, 0.05 mg/mL albumin (BSA). While the standard compound novobiocin was the positive control, 4% DMSO was considered as negative control. Subsequently, each reaction was stopped by the addition of 30 µL of Stop dye [40% sucrose, 100 mM Tris-HCl (pH 7.5), 1 mM EDTA and 0.5 mg/mL bromophenol blue] (8), briefly centrifuged for 45 sec and was run in 1% agarose gel in 1X TAE buffer (40mM Tris acetate, 2mM EDTA).

T1 sequence (P0A0K8 whole entry): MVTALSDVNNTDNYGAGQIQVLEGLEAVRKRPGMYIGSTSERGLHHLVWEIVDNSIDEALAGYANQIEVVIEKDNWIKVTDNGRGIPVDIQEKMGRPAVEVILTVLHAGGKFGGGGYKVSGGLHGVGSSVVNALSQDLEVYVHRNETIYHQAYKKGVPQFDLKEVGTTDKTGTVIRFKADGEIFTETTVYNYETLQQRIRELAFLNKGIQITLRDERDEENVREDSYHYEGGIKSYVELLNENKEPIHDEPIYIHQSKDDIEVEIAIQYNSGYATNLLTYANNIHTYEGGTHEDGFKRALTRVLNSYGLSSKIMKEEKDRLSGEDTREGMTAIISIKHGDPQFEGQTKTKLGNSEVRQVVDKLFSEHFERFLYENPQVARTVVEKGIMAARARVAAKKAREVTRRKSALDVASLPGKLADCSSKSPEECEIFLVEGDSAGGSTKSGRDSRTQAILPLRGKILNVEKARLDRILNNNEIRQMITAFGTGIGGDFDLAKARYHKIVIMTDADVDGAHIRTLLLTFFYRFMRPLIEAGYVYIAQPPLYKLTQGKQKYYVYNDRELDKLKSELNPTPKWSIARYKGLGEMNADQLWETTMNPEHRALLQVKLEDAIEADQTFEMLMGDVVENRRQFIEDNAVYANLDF

Row | Compound | IC50 (DNA gyrase subunit B [1]) [µM] | IC50 (DNA gyrase subunit B [2]) [µM]
1 | NNC(=O)CCC(=O)Nc1ccc(NC(=O)c2ccc[nH]2)cc1 [N-(4-(4-Hydrazinyl-4-oxobutanamido)phenyl)-1H-pyrrole-2-carboxamide (27)] | 54.9 | 43.1
2 | NNC(=O)CCC(=O)Nc1ccc(NC(=O)c2ccc([N+](=O)[O-])o2)cc1 [N-(4-(4-Hydrazinyl-4-oxobutanamido)phenyl)-5-nitrofuran-2-carboxamide (23)] | 35.5 | 25.1
3 | Cc1ccc(C(=O)Nc2ccc(NC(=O)CCC(=O)O)cc2)s1 [4-(4-(5-methylthiophene-2-carboxamido)phenylamino)-4-oxobutanoate (17)] | 24.7 | 12.5
4 | NNC(=O)CCC(=O)Nc1ccc(NC(=O)c2ccco2)cc1 [N-(4-(4-Hydrazinyl-4-oxobutanamido)phenyl)furan-2-carboxamide (21)] | 39.4 | 23.9
5 | Cc1ccc(C(=O)Nc2ccc(NC(=O)CCC(=O)O)cc2)o1 [4-(4-(5-methylfuran-2-carboxamido)phenylamino)-4-oxobutanoate (14)] | 10.3 | 6.12
6 | O=C(O)CCC(=O)Nc1ccc(NC(=O)c2ccc[nH]2)cc1 [4-(4-(1H-pyrrole-2-carboxamido)phenylamino)-4-oxobutanoate (19)] | 42.4 | 13.7
7 | O=C(O)CCC(=O)Nc1ccc(NC(=O)c2ccc([N+](=O)[O-])o2)cc1 [4-(4-(5-nitrofuran-2-carboxamido)phenylamino)-4-oxobutanoate (15)] | 28.9 | 25.8
8 | O=C(O)CCC(=O)Nc1ccc(NC(=O)c2ccc([N+](=O)[O-])s2)cc1 [4-(4-(5-nitrothiophene-2-carboxamido)phenylamino)-4-oxobutanoate (18)] | 29.5 | 26.8
9 | Cc1ccc(C(=O)Nc2ccc(NC(=O)CCC(=O)NN)cc2)s1 [N-(4-(4-Hydrazinyl-4-oxobutanamido)phenyl)-5-methylthiophene-2-carboxamide (25)] | 9.71 | 6.12
10 | NNC(=O)CCC(=O)Nc1ccc(NC(=O)C2CCCO2)cc1 (stereo not drawn) [N-(4-(4-Hydrazinyl-4-oxobutanamido)phenyl)tetrahydrofuran-2-carboxamide (28)] | 41.2 | 23.1
11 | O=C(O)CCC(=O)Nc1ccc(NC(=O)C2CCCO2)cc1 (stereo not drawn) [4-oxo-4-(4-(tetrahydrofuran-2-carboxamido)phenylamino)butanoate (20)] | 11.7 | 6.12
12 | NNC(=O)CCC(=O)Nc1ccc(NC(=O)c2cccs2)cc1 [N-(4-(4-Hydrazinyl-4-oxobutanamido)phenyl)thiophene-2-carboxamide (24)] | 32.6 | 28.1
13 | NNC(=O)CCC(=O)Nc1ccc(NC(=O)c2ccc([N+](=O)[O-])s2)cc1 [N-(4-(4-Hydrazinyl-4-oxobutanamido)phenyl)-5-nitrothiophene-2-carboxamide (26)] | 26.4 | 19.3
14 | Cc1ccc(C(=O)Nc2ccc(NC(=O)CCC(=O)NN)cc2)o1 [N-(4-(4-Hydrazinyl-4-oxobutanamido)phenyl)-5-methylfuran-2-carboxamide (22)] | 5.35 | 2.79
15 | O=C(O)CCC(=O)Nc1ccc(NC(=O)c2ccco2)cc1 [4-((4-(furan-2-carboxamido)phenyl)amino)-4-oxobutanoic acid (5)] | – | 3.12
16 | O=C(O)CCC(=O)Nc1ccc(NC(=O)c2ccc([N+](=O)[O-])s2)cc1 [4-((4-(5-nitrothiophene-2-carboxamido)phenyl)amino)-4-oxobutanoic acid (10)] | 12.5 | 6.12
17 | O=C(O)CCC(=O)Nc1ccc(NC(=O)c2cccs2)cc1 [4-oxo-4-((4-(thiophene-2-carboxamido)phenyl)amino)butanoate (16)] | 22 | 12.5
